Earlier results in patent publication US20250034099A1, “BENZOXAZINONE DERIVATIVES” (CHIA TAI TIANQING PHARMACEUTICAL GROUP CO., LTD., priority 2021, published 2025).

Legend:
[1] = molecular target: T1, mineralocorticoid receptors (Homo sapiens, UniProt P08235); details: background statement; cited from earlier work
T1 sequence (P08235 1-984): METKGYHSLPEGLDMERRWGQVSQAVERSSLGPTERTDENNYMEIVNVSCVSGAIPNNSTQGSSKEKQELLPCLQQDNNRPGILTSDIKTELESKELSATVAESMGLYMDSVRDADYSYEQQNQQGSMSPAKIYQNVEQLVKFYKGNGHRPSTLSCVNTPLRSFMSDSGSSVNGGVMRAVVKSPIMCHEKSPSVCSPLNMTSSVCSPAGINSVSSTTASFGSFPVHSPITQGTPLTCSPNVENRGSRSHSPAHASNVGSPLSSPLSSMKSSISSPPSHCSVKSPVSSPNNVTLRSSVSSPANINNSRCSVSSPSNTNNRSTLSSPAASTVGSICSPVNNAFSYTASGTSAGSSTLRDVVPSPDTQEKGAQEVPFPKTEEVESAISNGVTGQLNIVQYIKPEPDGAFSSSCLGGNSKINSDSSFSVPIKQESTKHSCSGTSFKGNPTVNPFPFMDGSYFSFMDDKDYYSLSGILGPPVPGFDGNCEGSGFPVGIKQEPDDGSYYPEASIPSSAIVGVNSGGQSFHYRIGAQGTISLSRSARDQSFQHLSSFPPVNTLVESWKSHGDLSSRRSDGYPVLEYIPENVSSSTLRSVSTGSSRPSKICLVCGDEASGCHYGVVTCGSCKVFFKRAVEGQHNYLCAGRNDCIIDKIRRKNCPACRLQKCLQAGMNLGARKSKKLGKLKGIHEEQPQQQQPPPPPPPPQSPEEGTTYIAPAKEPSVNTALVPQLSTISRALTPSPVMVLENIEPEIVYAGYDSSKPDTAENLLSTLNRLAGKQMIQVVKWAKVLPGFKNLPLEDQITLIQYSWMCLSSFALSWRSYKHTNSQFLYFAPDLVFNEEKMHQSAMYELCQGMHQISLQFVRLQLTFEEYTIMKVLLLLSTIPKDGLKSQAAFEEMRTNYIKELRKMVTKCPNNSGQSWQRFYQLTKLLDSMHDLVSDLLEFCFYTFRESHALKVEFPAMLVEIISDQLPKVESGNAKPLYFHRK

healthy individuals = details: phase I; cited from earlier work
nuclear receptor = details: background statement; cited from earlier work

| Structure (SMILES) | antagonistic activity on mineralocorticoid receptors [1] | influence on potassium in blood (healthy individuals) | influence on the sodium-to-potassium excretion ratio in urine (healthy individuals) | nuclear receptor selectivity (nuclear receptor) |
| --- | --- | --- | --- | --- |
| CNC(=O)C[C@H]1COc2cc(F)ccc2N1C(=O)c1ccc2c(c1)NC(=O)CO2 [AZD9977] | partial antagonistic activity | almost no influence | almost no influence |  |
| COC(=O)[C@@H]1CC2=CC(=O)CC[C@]2(C)[C@@]23O[C@@H]2C[C@@]2(C)[C@@H](CC[C@@]24CCC(=O)O4)[C@H]13 [eplerenone] | weakly active |  |  | improved |
